We go through 5 compounds from ChEMBL document CHEMBL4706475, “Multiparameter Lead Optimization to Give an Oral Checkpoint Kinase 1 (CHK1) Inhibitor Clinical Candidate: (R)-5-((4-((Morpholin-2-ylmethyl)amino)-5-(trifluoromethyl)pyridin-2-yl)amino)pyrazine-2-carbonitrile (CCT245737)” (J Med Chem, 2016).

The nature of data set [1]: in vivo. The note with it: mouse, iv, 10 mg/kg.
Data set [2] can be described thus: in vivo. The settings on record: mouse, iv, 10 mg/kg. The source holds these as a separate data set.
Data set [3] in a line: in vivo. The settings on record: mouse, iv, 10 mg/kg. This is another data set of the same source.
Data set [4] is described as follows: in vivo. The note with it: mouse, po, 10 mg/kg.
The nature of data set [5]: in vivo. The settings on record: mouse, iv, 5 mg/kg.
A short description of data set [6]: in vivo. The settings on record: mouse, iv, 5 mg/kg. This is another data set of the same source.
Data set [7] is described as follows: in vivo. The note with it: mouse, iv, 5 mg/kg. This is another data set of the same source.
Data set [8] is described as follows: in vivo. The settings on record: mouse, po, 5 mg/kg.
Data set [9] is described as follows: in vitro. The note with it: mouse, liver microsomes.
The nature of data set [10]: Intrinsic clearance in rat hepatocytes at 3 uM assessed per million cells. In kind it is ADME, cell-based, Hepatocyte. The note with it: read-out: CLH.
Data set [11] can be described thus: Intrinsic clearance in dog hepatocytes at 3 uM assessed per million cells. Format: ADME, cell-based, Canis lupus familiaris, Hepatocyte. The settings on record: read-out: CLH.
A short description of data set [12]: Solubility of compound in pure water. Format: physicochemical.
Data set [13] is described as follows: Solubility of compound in phosphate buffer at pH 6.5. In kind it is physicochemical.
The nature of data set [14]: Basicity constant, pKa of the compound by UV metric assay. In kind it is physicochemical.
The nature of data set [15]: Lipophilicity, logD of the compound at pH 7.4 by LC-MS/MS analysis. The settings on record: buffer. In kind it is physicochemical.
Data set [16] in a line: Passive permeability in human Caco2 cells. The settings on record: caco-2. Format: ADME, cell-based.
The nature of data set [17]: Metabolic stability in human liver microsomes in presence of glutathione. In kind it is ADME, Microsome.
Data set [18] in a line: Free drug level in NCr athymic mouse plasma xenografted with human HT-29 cells at 12.5 to 100 mg/kg, po administered as single dose measured at 24 hrs. The settings on record: in vivo, dose 12.5-100 mg/kg. Format: ADME, organism-based.
A short description of data set [19]: Metabolic stability in human liver microsomes in absence of glutathione. In kind it is ADME, Microsome.
For data set [20] the following is noted: mouse, in vivo, po, 10 mg/kg.
A short description of data set [21]: in vivo. The note with it: NCr athymic, mouse, plasma, po, 300 mg/kg.
Data set [22] is described as follows: in vivo. The note with it: rat.
Data set [23] in a line: in vivo. The settings on record: rat. The source holds these as a separate data set.
A short description of data set [24]: in vivo. The settings on record: rat, po.
Data set [25] can be described thus: in vitro. The note with it: CD-1, mouse, hepatocytes.
Data set [26] is described as follows: in vitro. The settings on record: human, hepatocytes.

In brackets after ≈: the same amount, converted by molar mass.

For the compound `N#Cc1cnc(Nc2cc(NC[C@H]3CNCCO3)c(-c3cccc(F)c3)cn2)cn1`, the clearance in “in vivo [1]” was 113 mL/min/kg. In the data set “in vivo [2]”, this compound yielded a volume of distribution (Vd) of 26.8 L/kg. For the same compound, the half-life in the data set “in vivo [3]” was 4.3 h. Besides, in the data set “in vivo [4]”, the bioavailability worked out at 53%.

`N#Cc1cnc(Nc2cc(NC[C@@H]3CNCCO3)c(C3CC3)cn2)cn1` showed a clearance in the data set “in vivo [1]” of 112 mL/min/kg. The distribution volume (Vd) in the data set “in vivo [2]” came out at 43.9 L/kg. This compound showed a half-life in the data set “in vivo [3]” of 8.1 h. The compound further registered a bioavailability in the data set “in vivo [4]” of 68%.

With `CC(C)(O)C#Cc1cnc(Nc2cnc(C#N)cn2)cc1NC[C@@H]1CNCCO1`, the clearance in “in vivo [1]” is 138 mL/min/kg. Also, the Vd in the data set “in vivo [2]” was determined as 10.4 L/kg. In “in vivo [3]”, this compound showed a half-life of 3.8 h. Besides, the bioavailability in “in vivo [4]” worked out at 10%.

For `COC(=O)c1cnc(Nc2cnc(C#N)cn2)cc1NCCC1CCNCC1`, the clearance in the data set “in vivo [5]” was 141 mL/min/kg. Moreover, the Vd in “in vivo [6]” amounted to 60.5 L/kg. The compound further showed a half-life in “in vivo [7]” of 11 h. This compound registered a bioavailability in “in vivo [8]” of 44%. Also, the metabolised at 0.5 h in the data set “in vitro [9]” came to 26%.

On to `N#Cc1cnc(Nc2cc(NC[C@H]3CNCCO3)c(C(F)(F)F)cn2)cn1` [SRA-737], for which the hepatocyte CLint at 3 µM worked out at 43.4 µL/min/1e6 cells in data set [10], 55 µL/min/1e6 cells in data set [11], 25.7 µL/min/1e6 cells in the data set “in vitro [25]” and 2.72 µL/min/1e6 cells in “in vitro [26]”. The results for the solubility in data set [12] and in [13] were 90 µg/mL (≈ 237 µM) and 1500 µg/mL (≈ 3950 µM), respectively. For the same compound, the pKa in data set [14] came to 7.87. In addition, the pH-dependent lipophilicity (logD) in data set [15] came to 1.47. Also, the permeability in data set [16] was 25 10^-6 cm/s. Moreover, the Stabilty result in data set [17] and in data set [19] was “Stable” in each case. For the same compound, in data set [18], the “Cp(f)” value is 0.015 µM. In data set [20], this compound yielded an F of 105%. For the same compound, the clearance is 44.2 mL/min/kg in “in vivo [1]” and 58.3 mL/min/kg in the data set “in vivo [22]”. Besides, the results for the volume of distribution (Vd) in the data set “in vivo [2]” and in the data set “in vivo [23]” were 9.25 L/kg and 4.6 L/kg, respectively. Moreover, the half-life in “in vivo [3]” is 2.9 h. This compound had a concentration at 24 h in “in vivo [21]” of 4 µM. Besides, the bioavailability in the data set “in vivo [24]” came to 38%.
